Earlier results on one molecule are cited in patent publication US9039761B2, “Ocular implant delivery assemblies with distal caps” (Allergan, Inc., priority 2006, dated 2015).

The conditions of the data set: efficacy in vivo; Goodman and Gilman's 8th Edition p. 1447.

Structures are written as SMILES.

As for `C[C@]12CCC(=O)C=C1CC[C@@H]1[C@@H]2[C@@H](O)C[C@@]2(C)[C@H]1CC[C@]2(O)C(=O)CO` [hydrocortisone], the “potency relative to dexamethasone (fold less potent)” value is recorded as “approximately twenty-five”.
